The source of these data is US20190021380A1 (priority 2014, published 2019).

Structures can show the parent of a compound that is named as a salt. Where two headings read alike, the source gives them in different places. A value given as a limit tells only on which side of the number the result lay.

The assay has as its target cat T1R1/T1R3 receptor (Felis catus, UniProt E3UMS2). In words: cell-based. To be noted: for function as activators of T1R1/T1R3: in the presence of alanine, in words; for Max resp % of IMP / Max. resp. % of IMP: hek293 cells. From the text:
HEK293 cells that stably express T1R3 and inducibly express T1R1 were exposed to nucleotide derivatives alone or in combination with one or more amino acids and/or one or more nucleotides to activate the umami receptor. Activation of the T1R1/T1R3 receptor was detected by a change in intracellular calcium levels using a calcium sensitive fluorescent dye and/or a luminescent reporter system. Cells that express T1R3 but not T1R1 were used as a control. A FLIPR® Tetra or a FlexStation® 3 was used for data capture.

Setting [1] is: in the presence of 20 mM alanine, read-out: EC50-with Ala.

In the case of “2′-, 3′-O—(N′-methylanthraniloyl)guanosine-5′-O-monophosphate”, the “function as activators of T1R1/T1R3” value is given as “activators of T1R1/T1R3”.
Turning to `Nc1ncnc2c1ccn2[C@H]1O[C@@H](COP(=O)(O)O)[C@H](O)[C@@H]1O` (stereo in doubt) [7-Deazaadenosine-5′-O-monophosphate], the “Thres” value was 0.188 mM.
Still for that read-out and setting: with `O=c1ccn([C@H]2O[C@@H](COP(=O)(O)O)[C@H](O)[C@@H]2O)c(=O)[nH]1` (stereo in doubt) [Uridine 5′-monophosphate disodium salt, reference compound] the figure was 3.000 mM.
With `O=c1ccn([C@H]2O[C@@H](COP(=O)(O)O)[C@H](O)[C@@H]2O)c(=O)[nH]1` (stereo in doubt) [Uridine 5′-monophosphate disodium salt], the EC50 (EC50-with Ala (mM)) is greater than 30 mM.
For `O=P(O)(O)OC[C@H]1O[C@@H](n2cnc3c2ncn2ccnc32)[C@H](O)[C@@H]1O` [1,N6-Ethenoadenosine-5′-O-monophosphate], the “Thres” value stood at 0.010 mM.
With `Nc1nc(Cl)c2ncn(C3OC(COP(=O)(O)O)C(O)C3O)c2n1` (stereo not shown) [2-amino-6-chloropurineriboside-5′-O-monophosphate], the outcome was active, the “Thres” value was determined as 0.00013 mM and the “Threshold” value was determined as 0.00013 mM.
On to `O=P(O)(O)OC[C@H]1O[C@@H](n2cnc3c2ncn2ccnc32)C[C@@H]1O` [2′-Deoxy-1,N6-ethenoadenosine-5′-O-monophosphate], for which the “Thres” value was determined as 0.05 mM. Moreover, under setting [1], the EC50 was 0.2 mM.
Regarding `CNc1ccccc1C(=O)O[C@H]1C[C@H](n2cnc3c(=O)[nH]c(N)nc32)O[C@@H]1COP(=O)(O)O` [2′-Deoxy-3′-O-(N′-methylanthraniloyl) guanosine-5′-O-monophosphate], the outcome was active, the “Thres” value stood at 0.0025 mM, the “Max resp % of IMP” value is listed as 23.7 % of IMP and the “Max. resp. % of IMP” value is 23.7 % of IMP. Moreover, the “function as activators of T1R1/T1R3” value is recorded as “activators of T1R1/T1R3”.
Regarding `CNc1ccccc1C(=O)O[C@H]1C[C@H](n2cnc3c(N)ncnc32)O[C@@H]1COP(=O)(O)O` [2′-Deoxy-3′-O-(N′-methylanthraniloyl)adenosine-5′-O-monophosphate], the “Thres” value amounted to 0.0025 mM. The EC50 under setting [1] stood at 0.01 mM.
Take `Nc1ncnc2c1ncn2[C@H]1C[C@H](O)[C@@H](COP(=O)(O)O)O1` [2′-Deoxyadenosine 5′-monophosphate]: the “Thres” value came out at 0.035 mM.
The same measure, in the same setting: with `Nc1ncnc2c1ncn2[C@H]1CC(OP(=O)(O)O)[C@@H](COP(=O)(O)O)O1` (stereo partly shown) [2′-Deoxyadenosine-3′,5′-O-bisphosphate] the figure was 0.005 mM; with `Nc1ncnc2c1ncn2C1CC(O)C(COP(O)(O)=S)O1` (stereo not shown) [2′-Deoxyadenosine-5′-O-monophosphorothioate], 0.015 mM.
As for `Nc1nc2c(ncn2[C@H]2C[C@H](OP(=O)(O)O)[C@@H](COP(=O)(O)O)O2)c(=O)[nH]1` [2′-Deoxyguanosine-3′,5′-O-bisphosphate], the outcome was active, the “Max resp ΔF/F” value is 1.8925 ΔF/F, the “Max resp. (ΔF/F)” value is given as 1.8925 ΔF/F and the “Thres” value was 0.005 mM. Also, the “Threshold” value worked out at 0.005 mM, the “Max resp % of IMP” value was 152.3 % of IMP, the “Max. resp. % of IMP” value is reported as 152.3 % of IMP and the “function as activators of T1R1/T1R3” value is given as “activators of T1R1/T1R3”. Under setting [1], the EC50 is 0.02 mM.
In the case of `Nc1nc2c(ncn2[C@H]2C[C@H](O)[C@@H](COP(O)(O)=S)O2)c(=O)[nH]1` [2′-Deoxyguanosine-5′-O-monophosphorothioate (5′-dGMPS)], the “Thres” value was 0.005 mM.
For the molecule `Nc1nc2c(ncn2[C@H]2C[C@H](O)[C@@H](COP(O)(O)=S)O2)c(=O)[nH]1` [2′-Deoxyguanosine-5′-O-monophosphorothioate,sodiumsalt], the “Thres” value is listed as 0.0025 mM and the “Max resp % of IMP” value is 86.7 % of IMP.
Regarding `O=c1[nH]cnc2c1ncn2C1CC(O)C(COP(O)(O)=S)O1` (stereo not shown) [2′-Deoxyinosine-5′-O-monophosphorothioate], the “Thres” value is on record as 0.025 mM.
Regarding `O=c1ccn([C@H]2C[C@H](O)[C@@H](COP(O)(O)=S)O2)c(=O)[nH]1` [2′-Deoxyuridine-5′-O-monophosphosphorothioate (5′-dUMPS)], the outcome was active, the “Max resp ΔF/F” value is on record as 0.4200 ΔF/F, the “Max resp. (ΔF/F)” value was 0.4200 ΔF/F and the “Thres” value came out at 5.000 mM. Besides, the “Threshold” value came to 5.000 mM and the “Max resp % of IMP” value was 43.4 % of IMP.
`O=c1ccn([C@H]2C[C@H](O)[C@@H](COP(O)(O)=S)O2)c(=O)[nH]1` [2′-Deoxyuridine-5′-O-monophosphosphorothioate]: the EC50 is greater than 30 mM (EC50 (mM)) and greater than 30 mM (EC50-with Ala (mM)).
On to `NC(=O)c1ncn(C2OC(COP(=O)(O)O)C(O)C2O)c1N` [5-Aminoimidazole-4-carboxamide-1-β-D-ribofuranosyl 5′-monophosphate], for which the “Thres” value is given as 0.200 mM.
On the same count and under the same terms, with `O=P(O)(O)OC[C@H]1O[C@@H](n2cnc3c(Cl)ncnc32)C(O)C1O` (stereo partly shown) [6-Chloropurineriboside-5′-O-monophosphate] the figure was 0.0005 mM.
As to `O=P(O)(O)OCC1OC(n2cnc3c(Cl)ncnc32)C(O)C1O` (stereo not shown) [6-chloropurineriboside-5′-O-monophosphate], the “function as activators of T1R1/T1R3” value was “activators of the T1R1/T1R3 receptor”.
As for `Nc1nc2c(ncn2[C@@H]2O[C@H](COP(=O)(O)O)[C@@H](O)[C@H]2O)c(=S)[nH]1` [6-thioguanosine-5′-O-monophosphate], the “function as activators of T1R1/T1R3” value is listed as “activators of T1R1/T1R3”. Further, the EC50 under setting [1] stood at 0.0009 mM.
On to `Nc1nc2c(nc(Br)n2[C@@H]2O[C@H](COP(=O)(O)O)[C@@H](O)[C@H]2O)c(=O)[nH]1` [8-Bromoguanosine-5′-O-monophosphate], for which the “Thres” value worked out at 1 mM.
Take `Nc1ncnc2c1nc(Cl)n2[C@@H]1O[C@H](COP(=O)(O)O)[C@@H](O)[C@H]1O` [8-Chloroadenosine-5′-O-monophosphate]: the “Thres” value is listed as 0.2 mM, the “Max resp % of IMP” value is given as 63.6 % of IMP and the “Max. resp. % of IMP” value was 63.6 % of IMP. Under “EC50 (mM), + Alanine (20 mM), Table 15”, the EC50 is 0.8 mM.
For the molecule `Nc1ncnc2c1ncn2C1OC(COP(=O)(O)O)C(OP(=O)(O)O)C1O` (stereo not shown) [Adenosine 3′,5′-diphosphate sodium salt, adenosine 3′,5′-diphosphate], the “Thres” value is recorded as 0.00025 mM.
The same measure, in the same setting: with `Nc1ncnc2c1ncn2[C@@H]1O[C@H](COP(=O)(O)O)[C@@H](O)[C@H]1O` [Adenosine 5′-monophosphate disodium salt, reference compound] the figure was 0.003 mM.
`Nc1ncnc2c1ncn2C1OC(COP(=O)(O)OS(=O)(=O)O)C(O)C1O` (stereo not shown) [Adenosine 5′-phosphosulfate sodium salt, Adenosine 5′-phosphosulfate]: the “Thres” value is recorded as 0.008 mM. Besides, for the setting “EC50 (mM)”, the EC50 came out at 0.03 mM.
Take `Nc1nc2c(ncn2[C@@H]2O[C@H](COP(=O)(O)O)[C@@H](O)[C@H]2O)c(=O)[nH]1` [GMP, guanosine monophosphate, reference compound]: the EC50 under setting [1] was 0.02 mM.
In the case of `Nc1nc2c(ncn2[C@@H]2O[C@H](COP(=O)(O)OP(=O)(O)O)[C@@H](O)[C@H]2O)c(=O)[nH]1` [Guanosine 5′-diphosphate sodium salt, Guanosine 5′-diphosphate], the “Thres” value was found to be 0.050 mM.
For the molecule `Nc1nc2c(ncn2[C@@H]2O[C@H](COP(=O)(O)OP(=O)(O)OP(=O)(O)O)[C@@H](O)[C@H]2O)c(=O)[nH]1` [Guanosine 5′-triphosphate], the result was active and the “Thres” value is 0.175 mM.
Regarding `Nc1nc2c(ncn2[C@@H]2O[C@H](COP(O)(O)=S)C(O)C2O)c(=O)[nH]1` (stereo partly shown) [Guanosine-5′-monophosphorothioate], the “Thres” value was found to be 0.0025 mM and the “function as activators of T1R1/T1R3” value is “activators of T1R1/T1R3”.
For the molecule `CNc1ncnc2c1ncn2[C@H]1C[C@H](OP(=O)(O)O)[C@@H](COP(=O)(O)O)O1` [MRS 2179 ammonium salt hydrate, 2′-Deoxy-N^6-methyl adenosine 3′,5′-diphosphate diammonium salt], the result was active and the “Thres” value was found to be 0.013 mM.
Regarding `O=P(O)(O)OC[C@H]1O[C@@H](n2cnc3c(NC4CCCC4)ncnc32)[C@H](O)[C@@H]1O` [N6-Cyclopentyladenosine-5′-O-monophosphate], the “Thres” value was 0.013 mM.
Same read-out and setting: with `CNc1ncnc2c1ncn2[C@@H]1O[C@H](COP(=O)(O)O)[C@@H](O)[C@H]1O` [N6-Methyladenosine 5′-monophosphate] the figure was 0.020 mM; with `CC(=O)Nc1nc2c(ncn2[C@@H]2O[C@H](COP(=O)(O)O)[C@@H](O)[C@H]2O)c(=O)[nH]1` [N-Acetyl-5′-GMP], 0.025 mM.
On the same count and under the same terms, under `NC(=O)c1ncn(C2OC(COP(=O)(O)O)C(O)C2O)n1` (stereo not shown) [Ribavirin 5′-Monophosphate] stands 0.175 mM.
Regarding `O=c1ccn([C@@H]2O[C@H](COP(=O)(O)O)[C@@H](O)[C@H]2O)c(=O)[nH]1` [UMP, uridine monophosphate, reference compound], under “EC50-with Ala (mM)”, the EC50 is greater than 30 mM.
Still for that read-out and setting: with `Nc1ncnc2c1ncn2[C@@H]1O[C@H](COP(=O)(O)O)[C@@H](O)[C@H]1O` [adenosine monophosphate (AMP), adenosine monophosphate, reference compound] the figure was 0.011 mM.
As to `O=c1nc[nH]c2c1ncn2C1O[C@H](COP(=O)(O)OP(=O)(O)OP(=O)(O)O)[C@@H](O)[C@H]1O` (stereo partly shown) [inosine triphosphate (ITP) trisodium salt], the “Max resp ΔF/F” value was 0.3 ΔF/F, the “Max resp. (ΔF/F)” value is listed as 0.3 ΔF/F, the “Thres” value was determined as 0.02 mM and the “Threshold” value is reported as 0.02 mM.
